Results taken from article PMC6723352, “Exploring Structure-Activity Relationship in Tacrine-Squaramide Derivatives as Potent Cholinesterase Inhibitors” (Biomolecules, 2019).

What was measured:
[1] = target: T1, human AChE (hAChE), recombinant acetylcholinesterase (Homo sapiens, UniProt P22303); assay: hAChE inhibition, modified Ellman's method; assay type: biochemical; conditions: for SI (selectivity index for hAChE): ratio IC50(hBChE)/IC50(hAChE)
T1 construct: made in house
Protocol: Three series of tacrine-squaramide homodimers were tested for their inhibitory potential against human AChE (hAChE) and human BChE (hBChE) enzymes using modified spectrophotometric method of Ellman et al.. THA, 6-Cl-THA and 7-MEOTA were used as reference compounds. […].
(§1) Human plasmatic butyrylcholinesterase (BChE; EC 3.1.1.8) and recombinant acetylcholinesterase (AChE; 3.1.1.7) were prepared at the Department of Toxicology and Military Pharmacy. 5,5′-dithiobis(2-nitrobenzoic acid) (Ellman’s reagent, DTNB), phosphate buffer (PB, pH 7.4), acetylthiocholine (ATC) and butyrylthiocholine (BTC), were purchased from Sigma-Aldrich, Prague, Czech Republic. For measuring purposes – polystyrene Nunc 96-well microplates with flat bottom shape (ThermoFisher Scientific, USA) were utilized.
(§2) All the assays were carried out in 0.1 M KH2PO4/K2HPO4 buffer, pH 7.4. Enzyme solutions were prepared at 2.0 units/mL in 2 mL aliquots. The assay medium (100 µL) consisted of 40 µL of 0.1 M phosphate buffer (pH 7.4), 20 µL of 0.01 M DTNB, 10 µL of the enzyme, and 20 µL of 0.01 M substrate (ATC/BTC iodide solution).
(§3) Tested compounds were preincubated for 5 min. The reaction was started by immediate addition of 20 µL of the substrate. The activity was determined by measuring the increase in absorbance at 412 for AChE/BChE at 37 °C at 2 min intervals - using a Multi-mode microplate reader Synergy 2 (Winooski, VT, USA). Each concentration was assayed in triplicate. Software GraphPad Prizm 5 (San Diego, CA, USA) was used for the statistical data evaluation.

[2] = target: human BChE (hBChE), human plasmatic butyrylcholinesterase (Homo sapiens, UniProt P06276); assay: hBChE inhibition, modified Ellman's method; assay type: biochemical; conditions: mean of at least three experiments; read-out: IC50 hBChE
Protocol: Three series of tacrine-squaramide homodimers were tested for their inhibitory potential against human AChE (hAChE) and human BChE (hBChE) enzymes using modified spectrophotometric method of Ellman et al.. THA, 6-Cl-THA and 7-MEOTA were used as reference compounds.
as §1, §2, §3

in vitro = conditions: human
Protocol: The human origin cell line HepG2 (ATCC, Mannassas, VA, USA) isolated from liver hepatocellular carcinoma was used to evaluate cytotoxicity of tested compounds. The cells were cultivated in Dublecco’s modified Eagle’s medium (DMEM; Biosera, Nuaille, France) supplemented with 10% fetal bovine serum (Biosera) and 1% penicillin-streptomycin antibiotic solution (Sigma-Aldrich, St. Louis, MO, USA), incubated at 37 °C in a CO2 incubator (Binder CO2 incubator BC 160, Tuttlingen, Germany) and routinely passaged by trypsinization at 75–85% confluence.
The final concentration of DMSO was less than 0.25% per well.
After 24-h incubation, the medium containing serially diluted substances was aspirated from each well and replaced by 100 µL of fresh medium containing MTT (0.5 mg/mL). Plates were subsequently incubated at 37 °C in CO2 incubator for 45 min. The medium containing MTT was then aspirated and formazan dissolved in 100 μL of DMSO. The optical density of each well was measured using Synergy 2 Multi-Mode Microplate Reader (BioTek Instruments, Inc., Winooski, VT, USA) at 570 nm. The cell viability was expressed as the percentage of untreated control. Each experiment was performed in triplicate and repeated three independent times.
The IC50 values were expressed as a mean ± standard error of the mean (SEM).

[3] = for Pe: PAMPA, PBS pH 7.4; for CNS (+/−) predicted BBB permeation: class from Pe
From the text: An important feature for drugs targeting the brain is their ability to cross the BBB. The parallel artificial membrane permeability assay (PAMPA) is a high-throughput screening tool applicable for prediction of passive transport across BBB [57]. […] These include mainly (i) the different composition of the human phospholipid bilayer may cause deviation in predicted permeability, (ii) omitting the absorption of compounds that are actively transported by influx transporters and pumped-out by various efflux mechanisms with the glycoprotein P at the forefront or (iii) transport through the paracellular route which is mostly exploited by small […] molecules. Even considering these drawbacks, PAMPA-BBB is conceived as very simple but powerful tool for BBB prediction.
PAMPA (the parallel artificial membrane permeability assay) is a high-throughput screening tool applicable for prediction of the passive transport of potential drugs across the blood-brain barrier (BBB). In this study, it has been used as a non-cell-based in vitro assay carried out in a coated 96-well membrane filter. The filter membrane of the donor plate was coated with PBL (Polar Brain Lipid, Avanti, USA) in dodecane (4 µl of 20 mg/mL PBL in dodecane) and the acceptor well was filled with 300 µl of phosphate buffer saline, (PBS pH 7.4; VA). The tested compounds were dissolved first in DMSO and then diluted with PBS pH 7.4 to reach the final concentrations 50–500 µM in the donor well. […] In principle, test compound diffuse from the donor well through the polar brain lipid membrane (area = 0.28 cm^2) to the acceptor well. The concentration of the tested compound in both donor and the acceptor wells were assessed after 3, 4, 5 and 6 h of incubation in quadruplicate using the UV plate reader Synergy HT (Biotek, USA) at the maximum absorption wavelength of each compound (n = 3). Besides that, the solution of theoretical compound concentration, simulating the equilibrium state, established if the membrane was ideally permeable was prepared and assessed as well.

Chain of human BChE (hBChE), human plasmatic butyrylcholinesterase (P06276 29-602): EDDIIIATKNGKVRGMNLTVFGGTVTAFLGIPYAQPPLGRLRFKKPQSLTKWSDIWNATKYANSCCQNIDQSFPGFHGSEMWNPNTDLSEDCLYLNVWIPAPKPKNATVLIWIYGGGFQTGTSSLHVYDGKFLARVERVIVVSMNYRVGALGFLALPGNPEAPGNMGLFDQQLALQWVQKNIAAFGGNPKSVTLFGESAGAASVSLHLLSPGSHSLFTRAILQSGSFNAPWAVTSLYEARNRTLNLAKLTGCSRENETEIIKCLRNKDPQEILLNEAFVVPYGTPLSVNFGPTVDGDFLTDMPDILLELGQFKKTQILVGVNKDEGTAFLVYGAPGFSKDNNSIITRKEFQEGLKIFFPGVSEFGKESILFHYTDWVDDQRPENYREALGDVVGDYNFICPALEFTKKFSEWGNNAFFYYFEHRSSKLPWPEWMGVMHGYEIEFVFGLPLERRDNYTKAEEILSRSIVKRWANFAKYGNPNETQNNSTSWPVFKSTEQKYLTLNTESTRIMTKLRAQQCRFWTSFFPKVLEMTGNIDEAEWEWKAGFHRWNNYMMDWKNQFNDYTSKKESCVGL
T1 sequence (P22303 32-614): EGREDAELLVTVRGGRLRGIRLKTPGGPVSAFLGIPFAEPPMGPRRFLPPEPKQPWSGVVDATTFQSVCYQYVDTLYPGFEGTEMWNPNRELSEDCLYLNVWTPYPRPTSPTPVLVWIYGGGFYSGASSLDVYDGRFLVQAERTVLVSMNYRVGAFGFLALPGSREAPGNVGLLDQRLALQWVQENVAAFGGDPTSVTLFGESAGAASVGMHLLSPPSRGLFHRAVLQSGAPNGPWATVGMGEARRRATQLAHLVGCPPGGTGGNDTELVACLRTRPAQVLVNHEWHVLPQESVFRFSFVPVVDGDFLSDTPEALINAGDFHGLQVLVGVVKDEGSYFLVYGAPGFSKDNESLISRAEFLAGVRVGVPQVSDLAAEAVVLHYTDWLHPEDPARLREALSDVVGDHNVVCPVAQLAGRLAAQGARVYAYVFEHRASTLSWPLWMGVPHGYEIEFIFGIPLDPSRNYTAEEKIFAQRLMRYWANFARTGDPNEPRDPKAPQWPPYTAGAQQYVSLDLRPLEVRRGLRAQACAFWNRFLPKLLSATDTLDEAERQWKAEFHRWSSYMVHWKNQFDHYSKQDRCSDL

| SMILES | IC50 [1] [nM] | SI (selectivity index for hAChE) [1] | IC50 [2] [nM] | IC50 at 24 h (in vitro) [µM] | Pe [3] [cm/s] | CNS (+/−) predicted BBB permeation [3] |
| --- | --- | --- | --- | --- | --- | --- |
| O=c1c(NCCCNc2c3c(nc4ccccc24)CCCC3)c(NCCCNc2c3c(nc4ccccc24)CCCC3)c1=O [Compound 3b, Bis({3-[(1,2,3,4-tetrahydroacridin-9-yl)amino]propyl}amino)cyclobut-3-ene-1,2-dione] | 8.4 | 6.5 | 55 | > 32 |  |  |
| O=c1c(NCCCCNc2c3c(nc4ccccc24)CCCC3)c(NCCCCNc2c3c(nc4ccccc24)CCCC3)c1=O [Compound 3c, Bis({4-[(1,2,3,4-tetrahydroacridin-9-yl)amino]butyl}amino)cyclobut-3-ene-1,2-dione] | 5.5 | 14 | 75 | 150 |  |  |
| O=c1c(NCCCCCNc2c3c(nc4ccccc24)CCCC3)c(NCCCCCNc2c3c(nc4ccccc24)CCCC3)c1=O [Compound 3d, Bis({5-[(1,2,3,4-tetrahydroacridin-9-yl)amino]pentyl}amino)cyclobut-3-ene-1,2-dione] | 8.1 | 8.5 | 69 | 69 |  |  |
| O=c1c(NCCCCCCCNc2c3c(nc4ccccc24)CCCC3)c(NCCCCCCCNc2c3c(nc4ccccc24)CCCC3)c1=O [Compound 3f, Bis({7-[(1,2,3,4-tetrahydroacridin-9-yl)amino]heptyl}amino)cyclobut-3-ene-1,2-dione] | 32 | 1 | 32 | 23 |  |  |
| O=c1c(NCCCCCCCCNc2c3c(nc4ccccc24)CCCC3)c(NCCCCCCCCNc2c3c(nc4ccccc24)CCCC3)c1=O [Compound 3g, Bis({8-[(1,2,3,4-tetrahydroacridin-9-yl)amino]octyl}amino)cyclobut-3-ene-1,2-dione] | 72 | 0.7 | 50 | 6.6 |  |  |
| O=c1c(NCCNc2c3c(nc4cc(Cl)ccc24)CCCC3)c(NCCNc2c3c(nc4cc(Cl)ccc24)CCCC3)c1=O [Compound 4a, Bis({2-[(6-chloro-1,2,3,4-tetrahydroacridin-9-yl)amino]ethyl}amino)cyclobut-3-ene-1,2-dione] | 4.2 | 36 | 150 | > 128 |  |  |
| O=c1c(NCCCCNc2c3c(nc4cc(Cl)ccc24)CCCC3)c(NCCCCNc2c3c(nc4cc(Cl)ccc24)CCCC3)c1=O [Compound 4c, Bis({4-[(6-chloro-1,2,3,4-tetrahydroacridin-9-yl)amino]butyl}amino)cyclobut-3-ene-1,2-dione] | 4.6 | 37 | 170 | > 64 |  |  |
| O=c1c(NCCCCCNc2c3c(nc4cc(Cl)ccc24)CCCC3)c(NCCCCCNc2c3c(nc4cc(Cl)ccc24)CCCC3)c1=O [Compound 4d, Bis({5-[(6-chloro-1,2,3,4-tetrahydroacridin-9-yl)amino]pentyl}amino)cyclobut-3-ene-1,2-dione] | 8.2 | 38 | 310 | > 64 |  |  |
| O=c1c(NCCCCCCCNc2c3c(nc4cc(Cl)ccc24)CCCC3)c(NCCCCCCCNc2c3c(nc4cc(Cl)ccc24)CCCC3)c1=O [Compound 4f, Bis({7-[(6-chloro-1,2,3,4-tetrahydroacridin-9-yl)amino]heptyl}amino)cyclobut-3-ene-1,2-dione] | 16 | 28 | 450 | > 64 |  |  |
| O=c1c(NCCCCCCCCNc2c3c(nc4cc(Cl)ccc24)CCCC3)c(NCCCCCCCCNc2c3c(nc4cc(Cl)ccc24)CCCC3)c1=O [Compound 4g, Bis({8-[(6-chloro-1,2,3,4-tetrahydroacridin-9-yl)amino]octyl}amino)cyclobut-3-ene-1,2-dione] | 10 | ˃10,000 | > 100000 | > 64 |  |  |
| COc1ccc2nc3c(c(NCCCNc4c(NCCCNc5c6c(nc7ccc(OC)cc57)CCCC6)c(=O)c4=O)c2c1)CCCC3 [Compound 5b, Bis({3-[(7-methoxy-1,2,3,4-tetrahydroacridin-9-yl)amino]propyl}amino)cyclobut-3-ene-1,2-dione] | 1100 | 8.1 | 8900 | > 64 |  |  |
| COc1ccc2nc3c(c(NCCCCNc4c(NCCCCNc5c6c(nc7ccc(OC)cc57)CCCC6)c(=O)c4=O)c2c1)CCCC3 [Compound 5c, Bis({4-[(7-methoxy-1,2,3,4-tetrahydroacridin-9-yl)amino]butyl}amino)cyclobut-3-ene-1,2-dione] | 4500 |  | 4700 | 190 |  |  |
| COc1ccc2nc3c(c(NCCCCCCNc4c(NCCCCCCNc5c6c(nc7ccc(OC)cc57)CCCC6)c(=O)c4=O)c2c1)CCCC3 [Compound 5e, Bis({6-[(7-methoxy-1,2,3,4-tetrahydroacridin-9-yl)amino]hexyl}amino)cyclobut-3-ene-1,2-dione] | 150 | 7.3 | 1100 | 26 |  |  |
| Nc1c2c(nc3cc(Cl)ccc13)CCCC2 [Compound 6-Cl-THA, 6-chlorotacrine, reference compound] |  |  |  | 43 |  |  |
| COc1ccc2nc3c(c(N)c2c1)CCCC3 [Compound 7-MEOTA, 7-methoxytacrine, reference compound] |  |  |  | 44 |  |  |
| COc1ccc2c3c1O[C@H]1C[C@@H](O)C=C[C@@]31CCN(C)C2 [Galantamine, galantamine, reference compound] |  |  |  | 4200 |  |  |
| CCN(C)C(=O)Oc1cccc([C@H](C)N(C)C)c1 [Rivastigmine, rivastigmine, reference compound] |  |  |  | 3400 |  |  |
| Nc1c2c(nc3ccccc13)CCCC2 [THA, 9-amino-1,2,3,4-tetrahydroacridine, reference compound] |  |  |  |  | 6e-06 | CNS + (CNS +: high BBB permeation predicted with Pe (10^−6 cm·s^−1) > 4.0) |
| NS(=O)(=O)c1cc2c(cc1Cl)N=CNS2(=O)=O [chlorothiazide, reference compound] |  |  |  |  | 3e-07 | CNS − (CNS −: low BBB permeation predicted with Pe (10^−6 cm·s^−1) < 2.0) |
| CC(C)Cc1ccc(C(C)C(=O)O)cc1 (centres unmarked) [ibuprofen, reference compound] |  |  |  |  | 1.2e-05 |  |
| CNC(=C[N+](=O)[O-])NCCSCc1ccc(CN(C)C)o1 [ranitidine, reference compound] |  |  |  |  | 0 | CNS − (CNS −: low BBB permeation predicted with Pe (10^−6 cm·s^−1) < 2.0) |
